According to publication PMC12152883, “Bile acids inhibit equilibrative adenosine transport to alter adenosine receptor signaling in cholestasis” (The Journal of Biological Chemistry, 2025):

What was measured:
Assay type in all cases: cell-based
PKA = PKA activity in CA-treated HeLa cells; conditions: 100 μM CA, 14 h; control 0.27 ± 0.016
IP3 = IP3 levels in CA-treated HeLa cells; conditions: 100 μM CA, 14 h; control 0.011 ± 0.0004
Procedure: (§1) High concentrations of BAs that inhibit ENT-mediated Ado transport could lead to an increase in extracellular Ado levels and therefore impact cell surface AdoR signaling.
(§2) PKC activity was measured using PKC kinase activity kit (ADI-EKS-420A) purchased from Enzo Biochem. IP3 levels were quantified using an IP3 (Inositol Triphosphate) ELISA Kit (EKF58173) supplied by Biomatik Corporation.

PKC = PKC activity in CA-treated HeLa cells; conditions: 100 μM CA, 14 h; control 0.01 ± 0.002
Procedure: as §1, §2

cAMP = cAMP levels in CA-treated HeLa cell lysate; conditions: 100 μM CA, 14 h; control 0.96 ± 0.14

Compound: C[C@H](CCC(=O)O)[C@H]1CC[C@H]2[C@@H]3[C@H](O)C[C@@H]4C[C@H](O)CC[C@]4(C)[C@H]3C[C@H](O)[C@]12C [CA, cholic acid]
- PKA activity in HeLa cells (PKA): 0.54 ± 0 U/μg protein
- IP3 levels in HeLa cells (IP3): 0.023 ± 0.0006 μg/μg protein
- PKC activity in HeLa cells (PKC): 0.02 ± 0.0001 U/μg protein
- cAMP levels in total HeLa cell lysate (cAMP): 1.28 ± 0.04 pMol/μg protein
